{
  "source": "patent US10238623B2",
  "about": "“C14-hydroxyl esterified amino acid derivative of triptolide, and preparation method and use thereof” (HANGZHOU WEBEN PHARMACEUTICALS INC, priority 2015, dated 2019)",
  "key": {"[1]": {"system": "human chronic myelogenous leukemia K562/ADR cells", "assay": "K562/ADR subcutaneous xenograft in NOD/SCID mice", "format": "in vivo", "settings": "for growth of K562/ADR cells in mice in vivo (in words): K562/ADR xenograft, intragastric 2 times a day, dose-dependent effect; for Tumor volume: K562/ADR", "experimental": "(§1) 7-week old female NOD/SCID mice were taken and inoculated subcutaneously with 1×10^7 cells (0.2 ml) per mouse in axilla, with human K562/ADR cells on the left. When tumors grew to a tumor size of around 50-100 mm^3, the mice were randomized into groups with 3 mice each. An equivalent amount of PBS was used for the control group, and the TPL-DDV group was divided into two groups with 0.23 mg/kg body weight and 0.46 mg/kg body weight: intragastric administration, 2 times a day (one at 8 a.m. and one at 4 p.m.) for consecutive 14 days of treatment. An observation was made for total 30 days, during which the conditions of the mice such as tumor size, weight, activity, diet, and the like were measured. At the end of the experiment, the mice were sacrificed, tumor tissues were taken and the tumors were weighed, and major organs and tissues of the mice such as liver, spleen, heart, lung, large intestine, small intestine, and the like were examined.\nas §1, with “TPL-LV” for “TPL-DDV”, “0.2” for “0.23”, “0.4” for “0.46”"}, "[2]": {"assay": "Body weight and organ examination of tumour-bearing mice", "format": "in vivo, NOD/SCID mice", "settings": "14 days, individual mice", "experimental": "(§2) 7-week old female NOD/SCID mice were taken and inoculated subcutaneously with 1×10^7 cells (0.2 ml) per mouse in axilla, with human acute myelogenous leukemia KG-1a cells on the left and human acute monocytic leukemia THP-1 cells on the right. When tumors grew to a tumor size of around 0.5 cm, the mice were randomized into groups with 3 mice each. An equivalent amount of PBS was used for the control group, and the 14-D-Valine-TPL group was divided into two groups with 0.2 mg/kg body weight and 0.4 mg/kg body weight: intragastric administration 2 times a day (one at 8 a.m. and one at 4 p.m.) for consecutive 14 days of treatment. An observation was made for total 30 days, during which the conditions of the mice such as tumor size, weight, activity, diet, and the like were measured. At the end of the experiment, the mice were sacrificed, tumor tissues were taken and the tumors were weighed, and major organs and tissues of the mice such as liver, spleen, heart, lung, large intestine, small intestine, and the like were examined.\nas §1, with “acute myelogenous leukemia KG-1a” for “K562/ADR”, “TPL-LLV” for “TPL-DDV”\nas §1, with “acute myelogenous leukemia KG-1a” for “K562/ADR”, “TPL-DLV” for “TPL-DDV”\nas §1, with “acute myelogenous leukemia KG-1a” for “K562/ADR”, “TPL-DLV” for “TPL-DDV”, “0.32” for “0.23”, “0.64” for “0.46”, “examined. […]” for “examined.”"}, "[3]": {"system": "human acute myelogenous leukemia KG-1a cells", "assay": "KG-1a subcutaneous xenograft in NOD/SCID mice", "format": "in vivo", "settings": "for growth of KG-1a in mice in vivo (in words): KG-1a xenograft, intragastric 2 times a day, dose-dependent effect; for Tumor volume: KG-1a", "experimental": "as §2\nas §1, with “acute myelogenous leukemia KG-1a” for “K562/ADR”, “TPL-LLV” for “TPL-DDV”\nas §1, with “acute myelogenous leukemia KG-1a” for “K562/ADR”, “TPL-DLV” for “TPL-DDV”\nas §1, with “acute myelogenous leukemia KG-1a” for “K562/ADR”, “TPL-DLV” for “TPL-DDV”, “0.32” for “0.23”, “0.64” for “0.46”"}, "KG-1a": {"system": "KG-1a", "assay": "MTT growth inhibition, KG-1a cells, 72 h", "format": "cell-based", "settings": "Homo sapiens", "experimental": "(§3) 5000 well-grown leukemia cells were taken and seeded into wells of a 96-well cell culture plate. The medium was 1640 cell medium containing 10% fetal bovine serum. 14-D-Valine-TPL with different concentrations was added, and after being uniformly mixed, the plate was placed in a carbon dioxide (5% CO2) cell incubator, and incubated at 37° C. for 72 hours. The concentration of live cells was then determined using the MTT assay. In this experiment, the cell viability in the control group (without the compound treatment) was set to be 100%, and the cell viability (%) after the action of the compound and the half maximal growth inhibitory concentration of leukemia cells at 72 hours (IC50 value at 72 hours) were calculated."}, "THP-1": {"system": "THP-1", "assay": "MTT growth inhibition, THP-1 cells, 72 h", "format": "cell-based", "settings": "Homo sapiens, THP-1, MTT", "experimental": "as §3"}, "KG-1": {"system": "KG-1", "assay": "MTT growth inhibition, KG-1 cells, 72 h", "format": "cell-based", "settings": "Homo sapiens, KG-1, MTT", "experimental": "as §3"}, "pancreatic cancer": {"system": "pancreatic cancer", "settings": "cited from earlier work"}},
  "note": "“And” between values parts separate entries of the source, which are not always exact repeats. Equal values may be shown once.",
  "data": [
    {"smiles": "CC(C)[C@@H](N)C(=O)N[C@@H](C(=O)O[C@@H]1[C@@]2(C(C)C)O[C@H]2[C@@H]2O[C@]23[C@]12O[C@H]2C[C@H]1C2=C(CC[C@@]13C)C(=O)OC2)C(C)C", "note": "[14-D-Valine-D-Valine-TPL, 14-Dextro-Valine-Dextro-Valine-Triptolide]", "values": [
      {"measurement": "growth of K562/ADR cells in mice in vivo (in words)", "setting": "[1]; 14 days", "value": "significantly inhibit the growth"},
      {"measurement": "Tumor volume", "setting": "[1]; 0.23 mg/kg, Overall", "value": 0, "unit": "mm^3"},
      {"measurement": "Tumor volume", "setting": "[1]; 0.46 mg/kg, Overall", "value": 0, "unit": "mm^3"},
      {"measurement": "Tumor volume", "setting": "[1]; trifluoroacetate 0.23 mg/kg intragastric 2 times a day, 14 days, individual mice", "value": 0, "unit": "mm^3"},
      {"measurement": "Tumor volume", "setting": "[1]; trifluoroacetate 0.46 mg/kg intragastric 2 times a day, 14 days, individual mice", "value": 0, "unit": "mm^3"},
      {"measurement": "Body weight", "setting": "[2]; K562/ADR-bearing mice, 0.23 mg/kg intragastric 2 times a day, listed as DDV, 0.23 mg/kg", "value": "19.7 g and 21.2 g and 19.1 g"},
      {"measurement": "Body weight", "setting": "[2]; K562/ADR-bearing mice, 0.46 mg/kg intragastric 2 times a day, listed as DDV, 0.46 mg/kg", "value": "20.5 g and 23.2 g and 19.3 g"}
    ]},
    {"smiles": "CC(C)[C@]12O[C@H]1[C@@H]1O[C@]13[C@]1(O[C@H]1C[C@H]1C4=C(CC[C@@]13C)C(=O)OC4)[C@@H]2OC(=O)[C@H](Cc1ccc(O)cc1)NC(=O)[C@@H](N)Cc1ccccc1", "note": "[14-L-Phenylalanyl-L-tyrosine-TPL, 14-Levo-Phenylalanyl-Levo-tyrosine-Triptolide]", "values": [
      {"measurement": "Body weight", "setting": "[2]; KG-1a-bearing mice, 0.32 mg/kg intragastric 2 times a day, listed as LPT, 0.32 mg/kg", "value": "20 g and 20.4 g and 21.4 g"},
      {"measurement": "Body weight", "setting": "[2]; KG-1a-bearing mice, 0.64 mg/kg intragastric 2 times a day, listed as LPT, 0.64 mg/kg", "value": "19.4 g and 16.1 g and 17.4 g"},
      {"measurement": "growth of KG-1a in mice in vivo (in words)", "setting": "[3]; 14 days", "value": "significantly inhibit the growth"},
      {"measurement": "Tumor volume", "setting": "[3]; 0.64 mg/kg, Overall", "value": 0, "unit": "mm^3"},
      {"measurement": "Tumor volume", "setting": "[3]; trifluoroacetate 0.32 mg/kg intragastric 2 times a day, 14 days, individual mice, listed as LPT", "value": "168.07 mm^3 and 93.12 mm^3 and 131.17 mm^3"},
      {"measurement": "Tumor volume", "setting": "[3]; trifluoroacetate 0.64 mg/kg intragastric 2 times a day, 14 days, individual mice", "value": 0, "unit": "mm^3"}
    ]},
    {"smiles": "CC(C)[C@H](N)C(=O)N[C@@H](C(=O)O[C@@H]1[C@@]2(C(C)C)O[C@H]2[C@@H]2O[C@]23[C@]12O[C@H]2C[C@H]1C2=C(CC[C@@]13C)C(=O)OC2)C(C)C", "note": "[14-L-Valine-D-Valine-TPL, 14-Levo-Valine-Dextro-Valine-Triptolide]", "values": [
      {"measurement": "Body weight", "setting": "[2]; KG-1a-bearing mice, 0.23 mg/kg intragastric 2 times a day, listed as DLV, 0.23 mg/kg", "value": "19.5 g and 17.8 g and 19.6 g"},
      {"measurement": "Body weight", "setting": "[2]; KG-1a-bearing mice, 0.46 mg/kg intragastric 2 times a day, listed as DLV, 0.46 mg/kg", "value": "19.6 g and 18.5 g and 18.8 g"},
      {"measurement": "growth of KG-1a in mice in vivo (in words)", "setting": "[3]; 14 days", "value": "significantly inhibit the growth"},
      {"measurement": "Tumor volume", "setting": "[3]; trifluoroacetate 0.23 mg/kg intragastric 2 times a day, 14 days, individual mice, listed as DLV", "value": "562.66 mm^3 and 505.81 mm^3 and 1038.41 mm^3"},
      {"measurement": "Tumor volume", "setting": "[3]; trifluoroacetate 0.46 mg/kg intragastric 2 times a day, 14 days, individual mice, listed as DLV", "value": "90.96 mm^3 and 265.32 mm^3 and 50.35 mm^3"}
    ]},
    {"smiles": "CC(C)[C@H](N)C(=O)N[C@H](C(=O)O[C@@H]1[C@@]2(C(C)C)O[C@H]2[C@@H]2O[C@]23[C@]12O[C@H]2C[C@H]1C2=C(CC[C@@]13C)C(=O)OC2)C(C)C", "note": "[14-L-Valine-L-Valine-TPL, 14-Levo-Valine-Levo-Valine-Triptolide]", "values": [
      {"measurement": "Body weight", "setting": "[2]; KG-1a-bearing mice, 0.23 mg/kg intragastric 2 times a day, listed as LLV, 0.23 mg/kg", "value": "19.4 g and 19.7 g and 20.5 g"},
      {"measurement": "Body weight", "setting": "[2]; KG-1a-bearing mice, 0.46 mg/kg intragastric 2 times a day, listed as LLV, 0.46 mg/kg", "value": "20.0 g and 18.9 g and 18.6 g"},
      {"measurement": "IC50", "setting": "KG-1a", "value": 20, "unit": "nM"},
      {"measurement": "growth of KG-1a in mice in vivo (in words)", "setting": "[3]; 14 days", "value": "significantly inhibit the growth"},
      {"measurement": "Tumor volume", "setting": "[3]; trifluoroacetate 0.23 mg/kg intragastric 2 times a day, 14 days, individual mice, listed as LLV", "value": "804.56 mm^3 and 644.07 mm^3 and 1105.64 mm^3"},
      {"measurement": "Tumor volume", "setting": "[3]; trifluoroacetate 0.46 mg/kg intragastric 2 times a day, 14 days, individual mice, listed as LLV", "value": "383.11 mm^3 and 356.82 mm^3 and 317.61 mm^3"}
    ]},
    {"smiles": "CC(C)[C@H](N)C(=O)O[C@@H]1[C@@]2(C(C)C)O[C@H]2[C@@H]2O[C@]23[C@]12O[C@H]2C[C@H]1C2=C(CC[C@@]13C)C(=O)OC2", "note": "[14-L-Valine-TPL, 14-Levo-Valine-Triptolide]", "values": [
      {"measurement": "growth of K562/ADR cells in mice in vivo (in words)", "setting": "[1]; 14 days", "value": "significantly inhibit the growth"},
      {"measurement": "Tumor volume", "setting": "[1]; trifluoroacetate 0.2 mg/kg intragastric 2 times a day, 14 days, individual mice, listed as LV", "value": "73.63 mm^3 and 0 mm^3 and 159.87 mm^3"},
      {"measurement": "Tumor volume", "setting": "[1]; trifluoroacetate 0.4 mg/kg intragastric 2 times a day, 14 days, individual mice, listed as LV", "value": "30.71 mm^3 and 96.79 mm^3 and 0 mm^3"},
      {"measurement": "Body weight", "setting": "[2]; K562/ADR-bearing mice, 0.2 mg/kg intragastric 2 times a day, listed as LV, 0.2 mg/kg", "value": "18 g and 22.2 g and 22 g"},
      {"measurement": "Body weight", "setting": "[2]; K562/ADR-bearing mice, 0.4 mg/kg intragastric 2 times a day, listed as LV, 0.4 mg/kg", "value": "21.2 g and 20.8 g and 21.1 g"},
      {"measurement": "IC50", "setting": "THP-1", "value": 5, "unit": "nM"},
      {"measurement": "IC50", "setting": "KG-1", "value": 8.86, "unit": "nM"}
    ]},
    {"smiles": "CC(C)[C@]12O[C@H]1[C@@H]1O[C@]13[C@]1(O[C@H]1C[C@H]1C4=C(CC[C@@]13C)C(=O)OC4)[C@@H]2OCOP(=O)(O)O", "note": "[Minnelide]", "values": [
      {"measurement": "toxic effect", "setting": "pancreatic cancer; at a dosage effective to tumor regression", "value": "no significant toxic effect"},
      {"measurement": "survival of mice", "setting": "pancreatic cancer; nude mouse model of pancreatic cancer", "value": "prolonged the survival of mice"}
    ]}
  ]
}
